Laboratory results as given in the supplement of paper PMC13207355.
Counter-ions that a name gives are not always drawn.

What was measured:
Conditions in all cases: exposure time: 72 h
E31 [1] = patient-derived glioblastoma stem cells of proneural subtype; test: surviving fraction (nuclei count normalised to DMSO); higher = more cells surviving (less toxic)
E34 [2] = patient-derived glioblastoma stem cells of proneural subtype; test: as above
FT3469 [3] = normal neural stem cell line; test: as above
E13 [4] = patient-derived glioblastoma stem cells of classical subtype; test: as above
E21 [5] = patient-derived glioblastoma stem cells of mesenchymal subtype; test: as above
E28 [6] = patient-derived glioblastoma stem cells of classical subtype; test: as above
E57 [7] = patient-derived glioblastoma stem cells of mesenchymal subtype; test: as above
E31 [8] = test: phenotypic distance (Euclidean, principal components) from DMSO controls (arbitrary units); higher = stronger morphological change
E34 [9] = test: as above
FT3469 [10] = test: as above
E13 [11] = test: as above
E21 [12] = test: as above
E28 [13] = test: as above
E57 [14] = test: as above
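Throughout, for phenotypic distance (Euclidean, principal components) from DMSO controls: cell Painting imaging in 384-well plates, CellProfiler features reduced to at least 20 principal components, Euclidean distance versus same-plate DMSO vehicle wells (0.1% v/v), median over six images per well.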
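Throughout, for surviving fraction (nuclei count normalised to DMSO): nuclei counted by high-content imaging of Hoechst-stained cells in laminin-coated 384-well plates, relative to 0.1% DMSO vehicle wells, with staurosporine as cell-death control.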

CC[C@]1(O)C[C@@H]2CN(CCc3c([nH]c4ccccc34)[C@@](C(=O)OC)(c3cc4c(cc3OC)N(C)[C@H]3[C@@](O)(C(=O)OC)[C@H](OC(C)=O)[C@]5(CC)C=CCN6CC[C@]43[C@@H]65)C2)C1 [Vinblastine sulfate]
Conditions	phenotypic distance	surviving fraction
E13 [4], 4.1 nM	–	0.22
E13 [4], 12.3 nM	–	0.177
E13 [4], 37 nM	–	0.175
E13 [4], 111.1 nM	–	0.159
E13 [4], 333.3 nM	–	0.171
E13 [4], 1000 nM	–	0.162
E13 [4], 3000 nM	–	0.194
E13 [11], 4.1 nM	7.96	–
E13 [11], 12.3 nM	7.11	–
E13 [11], 37 nM	8.76	–
E13 [11], 111.1 nM	7.57	–
E13 [11], 333.3 nM	9.22	–
E13 [11], 1000 nM	8.93	–
E13 [11], 3000 nM	9.73	–
E21 [5], 4.1 nM	–	0.0927
E21 [5], 12.3 nM	–	0.0948
E21 [5], 37 nM	–	0.0937
E21 [5], 111.1 nM	–	0.08
E21 [5], 333.3 nM	–	0.0642
E21 [5], 1000 nM	–	0.0421
E21 [5], 3000 nM	–	0.0326
E21 [12], 4.1 nM	9.17	–
E21 [12], 12.3 nM	9.98	–
E21 [12], 37 nM	11.1	–
E21 [12], 111.1 nM	9.54	–
E21 [12], 333.3 nM	8.35	–
E21 [12], 1000 nM	8.21	–
E21 [12], 3000 nM	11	–
E28 [6], 4.1 nM	–	0.39
E28 [6], 12.3 nM	–	0.297
E28 [6], 37 nM	–	0.291
E28 [6], 111.1 nM	–	0.236
E28 [6], 333.3 nM	–	0.269
E28 [6], 1000 nM	–	0.218
E28 [6], 3000 nM	–	0.204
E28 [13], 4.1 nM	3.12	–
E28 [13], 12.3 nM	3.85	–
E28 [13], 37 nM	4.99	–
E28 [13], 111.1 nM	4.47	–
E28 [13], 333.3 nM	5.63	–
E28 [13], 1000 nM	6.15	–
E28 [13], 3000 nM	6.57	–
E31 [1], 4.1 nM	–	0.0459
E31 [1], 12.3 nM	–	0.0237
E31 [1], 37 nM	–	0.0459
E31 [1], 111.1 nM	–	0.0325
E31 [1], 333.3 nM	–	0.0444
E31 [1], 1000 nM	–	0.0237
E31 [1], 3000 nM	–	0.0163
E31 [8], 4.1 nM	6.42	–
E31 [8], 12.3 nM	12.9	–
E31 [8], 37 nM	11.4	–
E31 [8], 111.1 nM	10.7	–
E31 [8], 333.3 nM	14.5	–
E31 [8], 1000 nM	10.1	–
E31 [8], 3000 nM	9.92	–
E34 [2], 4.1 nM	–	0.338
E34 [2], 12.3 nM	–	0.282
E34 [2], 37 nM	–	0.405
E34 [2], 111.1 nM	–	0.322
E34 [2], 333.3 nM	–	0.375
E34 [2], 1000 nM	–	0.226
E34 [2], 3000 nM	–	0.281
E34 [9], 4.1 nM	7.02	–
E34 [9], 12.3 nM	7.36	–
E34 [9], 37 nM	6.67	–
E34 [9], 111.1 nM	7.53	–
E34 [9], 333.3 nM	8.9	–
E34 [9], 1000 nM	8.95	–
E34 [9], 3000 nM	8.01	–
E57 [7], 4.1 nM	–	0.0751
E57 [7], 12.3 nM	–	0.0815
E57 [7], 37 nM	–	0.0676
E57 [7], 111.1 nM	–	0.0629
E57 [7], 333.3 nM	–	0.057
E57 [7], 1000 nM	–	0.0602
E57 [7], 3000 nM	–	0.057
E57 [14], 4.1 nM	5.33	–
E57 [14], 12.3 nM	5.47	–
E57 [14], 37 nM	6.45	–
E57 [14], 111.1 nM	5.46	–
E57 [14], 333.3 nM	5.55	–
E57 [14], 1000 nM	5.53	–
E57 [14], 3000 nM	6.15	–
FT3469 [3], 4.1 nM	–	0.427
FT3469 [3], 12.3 nM	–	0.416
FT3469 [3], 37 nM	–	0.414
FT3469 [3], 111.1 nM	–	0.334
FT3469 [3], 333.3 nM	–	0.372
FT3469 [3], 1000 nM	–	0.388
FT3469 [3], 3000 nM	–	0.353
FT3469 [10], 4.1 nM	3.93	–
FT3469 [10], 12.3 nM	4.58	–
FT3469 [10], 37 nM	4.48	–
FT3469 [10], 111.1 nM	5.12	–
FT3469 [10], 333.3 nM	6.19	–
FT3469 [10], 1000 nM	5.04	–
FT3469 [10], 3000 nM	5.6	–

CCC1=C[C@@H]2CN(C1)Cc1c([nH]c3ccccc13)[C@@](C(=O)OC)(c1cc3c(cc1OC)N(C)[C@H]1[C@@](O)(C(=O)OC)[C@H](OC(C)=O)[C@]4(CC)C=CCN5CC[C@]31[C@@H]54)C2 [Vinorelbine Tartrate]
Conditions	phenotypic distance	surviving fraction
E13 [4], 4.1 nM	–	0.863
E13 [4], 12.3 nM	–	0.903
E13 [4], 37 nM	–	0.916
E13 [4], 111.1 nM	–	0.907
E13 [4], 333.3 nM	–	0.82
E13 [4], 1000 nM	–	0.371
E13 [4], 3000 nM	–	0.246
E13 [11], 4.1 nM	1.1	–
E13 [11], 12.3 nM	1.18	–
E13 [11], 37 nM	1.26	–
E13 [11], 111.1 nM	1.7	–
E13 [11], 333.3 nM	2.71	–
E13 [11], 1000 nM	4.6	–
E13 [11], 3000 nM	6.33	–
E21 [5], 4.1 nM	–	0.868
E21 [5], 12.3 nM	–	0.894
E21 [5], 37 nM	–	0.926
E21 [5], 111.1 nM	–	0.761
E21 [5], 333.3 nM	–	0.586
E21 [5], 1000 nM	–	0.169
E21 [5], 3000 nM	–	0.1
E21 [12], 4.1 nM	1.06	–
E21 [12], 12.3 nM	1.08	–
E21 [12], 37 nM	1.45	–
E21 [12], 111.1 nM	2.33	–
E21 [12], 333.3 nM	4.36	–
E21 [12], 1000 nM	7	–
E21 [12], 3000 nM	8.49	–
E28 [6], 4.1 nM	–	0.904
E28 [6], 12.3 nM	–	0.815
E28 [6], 37 nM	–	0.801
E28 [6], 111.1 nM	–	0.749
E28 [6], 333.3 nM	–	0.609
E28 [6], 1000 nM	–	0.375
E28 [6], 3000 nM	–	0.353
E28 [13], 4.1 nM	0.584	–
E28 [13], 12.3 nM	0.83	–
E28 [13], 37 nM	0.727	–
E28 [13], 111.1 nM	1.31	–
E28 [13], 333.3 nM	2.18	–
E28 [13], 1000 nM	2.7	–
E28 [13], 3000 nM	3.22	–
E31 [1], 4.1 nM	–	0.794
E31 [1], 12.3 nM	–	0.911
E31 [1], 37 nM	–	0.749
E31 [1], 111.1 nM	–	0.649
E31 [1], 333.3 nM	–	0.37
E31 [1], 1000 nM	–	0.126
E31 [1], 3000 nM	–	0.0917
E31 [8], 4.1 nM	0.666	–
E31 [8], 12.3 nM	0.627	–
E31 [8], 37 nM	0.856	–
E31 [8], 111.1 nM	1.44	–
E31 [8], 333.3 nM	3.01	–
E31 [8], 1000 nM	4.58	–
E31 [8], 3000 nM	5.73	–
E34 [2], 4.1 nM	–	1.05
E34 [2], 12.3 nM	–	0.954
E34 [2], 37 nM	–	0.856
E34 [2], 111.1 nM	–	0.97
E34 [2], 333.3 nM	–	0.822
E34 [2], 1000 nM	–	0.57
E34 [2], 3000 nM	–	0.402
E34 [9], 4.1 nM	0.476	–
E34 [9], 12.3 nM	0.944	–
E34 [9], 37 nM	0.78	–
E34 [9], 111.1 nM	1.01	–
E34 [9], 333.3 nM	1.48	–
E34 [9], 1000 nM	2.84	–
E34 [9], 3000 nM	4.02	–
E57 [7], 4.1 nM	–	0.969
E57 [7], 12.3 nM	–	1.04
E57 [7], 37 nM	–	1.04
E57 [7], 111.1 nM	–	1.02
E57 [7], 333.3 nM	–	0.899
E57 [7], 1000 nM	–	0.447
E57 [7], 3000 nM	–	0.102
E57 [14], 4.1 nM	0.512	–
E57 [14], 12.3 nM	0.688	–
E57 [14], 37 nM	0.822	–
E57 [14], 111.1 nM	0.746	–
E57 [14], 333.3 nM	3.9	–
E57 [14], 1000 nM	4.81	–
E57 [14], 3000 nM	6.16	–
FT3469 [3], 4.1 nM	–	0.953
FT3469 [3], 12.3 nM	–	0.829
FT3469 [3], 37 nM	–	0.834
FT3469 [3], 111.1 nM	–	0.827
FT3469 [3], 333.3 nM	–	0.569
FT3469 [3], 1000 nM	–	0.553
FT3469 [3], 3000 nM	–	0.56
FT3469 [10], 4.1 nM	0.854	–
FT3469 [10], 12.3 nM	1.01	–
FT3469 [10], 37 nM	1.01	–
FT3469 [10], 111.1 nM	1.12	–
FT3469 [10], 333.3 nM	2.43	–
FT3469 [10], 1000 nM	4.88	–
FT3469 [10], 3000 nM	3.13	–
